ChEMBL document CHEMBL4834426, “Antimalarial Benzimidazole Derivatives Incorporating Phenolic Mannich Base Side Chains Inhibit Microtubule and Hemozoin Formation: Structure-Activity Relationship and In Vivo Oral Efficacy Studies” (J Med Chem, 2021)

Assay: Inhibition of tubulin polymerization in asexual blood stage Plasmodium falciparum NF54

- IC50: 200 µM
SMILES: COC(=O)Nc1nc2cc(C(=O)c3ccccc3)ccc2[nH]1 [MEBENDAZOLE]
